Results on 9 compounds are retold here after patent US20230002346A1, “NEW COMPOUNDS AND METHODS” (BenevolentAl Bio Limited, priority 2019, published 2023).

Data set [1] is described as follows: Rat PK profile (bioavailability, clearance, half-life). The format is in vivo. Conditions: male, Sprague Dawley, plasma, i.v. dose 1 mg/kg; for clearance / half-life: iv; for half-life: read-out: T½ (converted); for bioavailability: po, p.o. dose 3 mg/kg. The procedure: Male Sprague Dawley Rats 300-350 g (Charles River, UK) were group housed, n=3, under a 12 h light/dark cycle with food and water available ad libitum. At 17:00 on the day prior to dosing all food was removed. On the day of dosing animals were weighed, tail marked and dosed via oral gavage with compound at 3 mg/kg in a volume of 5 mL/kg. Animals were culled at 30 min, 1 h and 4 h post dose via intra-peritoneal administration of pentobarbital. Post mortem blood was withdrawn via cardiac puncture, and briefly stored in K2 EDTA blood tubes on ice before being spun at 14,000 g for 4 min at 4° C. Plasma was withdrawn into a 96 well plate, placed on dry ice and stored at −80° C. Brains were quickly dissected and placed on dry ice before storage at −80° C. Bioanalysis of plasma and brain samples is performed as detailed below. Methods were prepared with guidance from industry standard documents.^i,ii
A 10 mM DMSO stock is used to prepare spiking solutions of test compound in the range of 10-100,000 ng/mL in diluent (MeCN:water, 1;1). Calibration lines are prepared in control male Sprague-Dawley Rat plasma at known concentrations in the range of 1-10000 ng/mL by spiking 2.5 μL of calibration spiking solution into 25 μL control plasma. Experimental samples are thawed to RT and 25 μL aliquots are extracted alongside the calibration lines using protein precipitation (agitation for at least 5 min at RT with 400 μL of MeCN containing 25 ng/mL tolbutamide as an internal standard). Protein precipitates are separated from the extracted test compound by centrifugation at 4000 rpm for 5 min, 4° C. The resulting supernatants are diluted in a ratio of 1:2 with a relevant diluent (e.g. 0.1% formic acid in water or 1:1 MeOH:water). Samples are analysed by UPLC-MS/MS on either an API6500 QTrap or Waters 30 TQS mass spectrometer using previously optimised analytical MRM (multiple reaction monitoring) methods, specific to the test compound. The concentration of test compound in isolated samples is determined following analysis of the samples against the two replicates of the calibration line, injected before and after the sample set with an appropriate regression and weighting used. Only samples within 20% of the expected test concentration are included in the calibration line and any samples that fall outside of the limits of the calibration line will be deemed to be less than or above the limit of quantification (LLoQ/ALoQ).
Pharmacokinetic parameters such as bioavailability (% F), clearance (CL), half-life (T½) and volume of distribution are calculated by non-compartmental analysis using Phoenix Winnonlin 64 software (build 8.0). The bioavailability was calculated from p.o. dosed rats, whereas the clearance and half-life were calculated from i.v. dosed rats. Briefly, in vivo plasma concentrations, timepoints and dose values are imported into the software in a compatible format. Plasma concentration for each animal is plotted against time, and the elimination phase identified and selected. The area under the curve for each plot is calculated using a linear trapezoidal linear interpolation from which pharmacokinetic parameters can subsequently be determined. […] Compounds of the invention have much improved clearance (CL) and half-life (T½) compared to the reference examples.

Data set [2] concerns the target T1, hERG channel (Homo sapiens, UniProt Q12809).
T1 construct: expressed in transfected cells
The experiment in a line: hERG assay (QPatch automated patch clamp, CHO cells). The data set is classed as cell-based. Conditions: CHO cells expressing hERG, whole-cell patch clamp, 0.003 μM to 10 μM. The text has this: The human ether-a-go-go related gene (hERG) potassium channel (Kv11.1) contributes to human cardiac action potential repolarisation. Inhibition of hERG channels can prolong the human cardiac action potential, resulting in QTc prolongation and potentially lethal arrhythmias (e.g. Torsade de Pointes).
Test samples were screened against the hERG channel on a QPatch 48 gigaseal automated patch clamp platform, using a Chinese Hamster Ovary (CHO) cell line stably expressing the human ether-á-go-go related gene, which encodes the hERG channel. All recordings were made in the conventional whole-cell configuration and performed at RT ([…]) using standard single hole chips (Rchip 1.5-4M0). Series resistance (4-15Mc) was compensated by >80%. Currents were elicited from a holding potential of −90 mV using the industry standard “^+40/−40” voltage protocol, which was applied at a stimulus frequency of 0.1 Hz. On achieving the whole-cell configuration, vehicle (0.1% DMSO v/v in external recording solution) was applied to each cell in two bolus additions with a 2 min recording period between each addition. Following the vehicle period, eight increasing concentrations of test sample were applied from 0.003 μM to 10 μM as a single bolus addition per test concentration, and the effects on hERG tail current amplitude measured during the 2 min recording period. Each eight-point concentration-response curve was constructed using cumulative single sample additions of each concentration to the same cell. The positive control used in this study was verapamil hydrochloride (Tocris, Cat #0654, Batch #5A/61673) and prepared to a stock concentration of 10 mM in 100% DMSO and kept as frozen aliquots.
Data analysis: All cells passing the QC parameters (i.e. >200 pA outward current, membrane resistance and rundown) are selected as ‘passed QC’ using the QPatch software, which then calculates the mean peak current for the last three sweeps at the end of each concentration application period from the cursor positions defined. Percent inhibition is calculated for each test concentration application period as the reduction in mean cursor value (peak current or charge) relative to the cursor value measured at the end of the control (i.e. vehicle) period. The percent inhibition values from each cell are used to construct concentration-response curves employing a four parametric logistic fit with 0 and 100% inhibition levels fixed at very low and very high concentrations, respectively, and a free Hill slope factor. The IC50 (50% inhibitory concentration) and Hill coefficient are then determined, but only data from cells with Hill slopes within 0.5>nH<2.0 are included. The IC50 data reported below represents the mean (and S.D.) of at least three separate cells (N≥3). […] Compounds of the invention show reduced hERG inhibitory activity compared to the reference examples.

The nature of data set [3]: Kinetic aqueous solubility assay. The data set is classed as physicochemical. Conditions: aqueous buffer, kinetic from dmso stock, 0.05M potassium phosphate buffer pH 7.4, 250 μM spike, RT. The procedure: Using a 10 mM stock solution of test compound in 100% DMSO, test compounds were spiked into 0.05M potassium phosphate buffer (pH 7.4) at a final concentration of 250 μM. Samples in buffer (n=2 aqueous samples, in 96-well plates) were allowed to equilibrate at RT on an orbital shaker for 30 min (300 rpm) to induce precipitation of test compounds. The appearance of each sample was determined by visual examination and noted (clear, cloudy, precipitate observed etc.). […] The concentration of compound in phosphate buffer filtrate was determined by comparing the UV absorbance peak area of each replicate against that of the calibration standards. […] Compounds of the invention have much improved solubility compared to the reference examples.

≈ marks a conversion by molar mass, not a printed value. Some results are limits rather than exact numbers.

T1 sequence (Q12809 whole entry): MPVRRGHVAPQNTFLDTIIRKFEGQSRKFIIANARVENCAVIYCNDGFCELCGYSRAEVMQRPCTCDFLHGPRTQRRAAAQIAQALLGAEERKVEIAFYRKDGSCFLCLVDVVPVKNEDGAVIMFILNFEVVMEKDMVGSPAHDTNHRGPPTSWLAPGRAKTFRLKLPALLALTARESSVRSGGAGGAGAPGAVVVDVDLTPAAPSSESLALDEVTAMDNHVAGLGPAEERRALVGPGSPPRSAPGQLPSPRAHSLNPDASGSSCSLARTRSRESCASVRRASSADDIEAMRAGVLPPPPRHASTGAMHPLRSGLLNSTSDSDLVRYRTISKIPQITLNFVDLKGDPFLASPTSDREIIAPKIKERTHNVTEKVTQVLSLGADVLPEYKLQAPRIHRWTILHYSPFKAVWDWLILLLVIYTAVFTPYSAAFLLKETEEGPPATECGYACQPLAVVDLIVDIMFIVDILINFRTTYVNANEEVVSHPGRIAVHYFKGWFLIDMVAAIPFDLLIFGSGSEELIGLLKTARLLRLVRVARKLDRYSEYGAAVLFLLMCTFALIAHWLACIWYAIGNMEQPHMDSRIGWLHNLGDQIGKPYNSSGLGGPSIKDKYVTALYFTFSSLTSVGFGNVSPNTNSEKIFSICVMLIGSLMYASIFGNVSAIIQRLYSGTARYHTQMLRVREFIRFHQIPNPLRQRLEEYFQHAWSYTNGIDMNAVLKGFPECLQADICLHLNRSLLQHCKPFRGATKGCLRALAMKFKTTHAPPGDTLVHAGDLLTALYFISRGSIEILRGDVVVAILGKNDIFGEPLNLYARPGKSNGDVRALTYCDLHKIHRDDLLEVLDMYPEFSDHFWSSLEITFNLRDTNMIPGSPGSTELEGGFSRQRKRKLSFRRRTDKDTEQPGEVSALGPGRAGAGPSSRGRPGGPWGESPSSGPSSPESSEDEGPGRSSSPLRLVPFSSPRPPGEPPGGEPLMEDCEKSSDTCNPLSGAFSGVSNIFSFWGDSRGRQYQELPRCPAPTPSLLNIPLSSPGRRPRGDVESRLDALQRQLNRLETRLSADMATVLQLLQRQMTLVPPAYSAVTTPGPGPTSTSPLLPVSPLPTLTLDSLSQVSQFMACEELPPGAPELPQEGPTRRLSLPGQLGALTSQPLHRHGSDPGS

Turning to `Cn1cc(C(=O)Nc2ccc(OC(F)(F)Cl)cc2)cc(-c2cccnc2)c1=O` [Example 81, N-[4-[Chloro(difluoro)methoxy]phenyl]-1-methyl-6-oxo-5-(3-pyridyl)pyridine-3-carboxamide], in data set [1], the clearance was determined as 3 mL/min/kg, the half-life was 6.2 h and the bioavailability was 102%.

Take `Cn1cc(C(=O)Nc2ccc(OC(F)(F)F)cc2)ccc1=O` [Example 26, 1-Methyl-6-oxo-N-[4-(trifluoromethoxy)phenyl]pyridine-3-carboxamide]: the IC50 in data set [2] is greater than 10 µM.

`Cc1ccc(C(=O)Nc2ccc(OC(F)(F)F)cc2)cc1-c1cccnc1` [Ref. ex. 3, 4-Methyl-3-(3-pyridyl)-N-[4-(trifluoromethoxy)phenyl]benzamide, reference compound] displayed a solubility at 30 min in data set [3] of 56 µM (≈ 20.9 µg/mL). The same compound registered an IC50 in data set [2] of 2.5 µM.

In data set [3], `O=C(Nc1ccc(OC(F)(F)Cl)cc1)c1cccc(-c2cncnc2)c1` [Ref. ex. 2, N-[4-[Chloro(difluoro)methoxy]phenyl]-3-pyrimidin-5-ylbenzamide, reference compound] yielded a solubility at 30 min of 9 µM (≈ 3.38 µg/mL). Moreover, the midpoint of inhibition in data set [2], the IC50, lay at 1.9 µM.

Take `Cn1cc(C(=O)Nc2ccc(OC(F)(F)Cl)cc2)cc(-c2cncnc2)c1=O` [Example 82, N-[4-(Chlorodifluoromethoxy)phenyl]-1-methyl-6-oxo-5-(pyrimidin-5-yl)-1,6-dihydropyridine-3-carboxamide]: in data set [3], the solubility at 30 min came to 170 µM (≈ 69.2 µg/mL). In data set [2], the half-maximal inhibitory concentration (IC50) was greater than 10 µM.

In data set [3], `O=C(Nc1ccc(OC(F)(F)F)cc1)c1cncc(-c2cccnc2)c1` [Ref. ex. 4, 5-(3-Pyridyl)-N-[4-(trifluoromethoxy)phenyl]pyridine-3-carboxamide, reference compound] showed a solubility at 30 min of less than 5 µM. Besides, in data set [1], the clearance came to 12 mL/min/kg, the half-life was 1.2 h and the bioavailability was 113%. Moreover, in data set [2], the IC50 came out at 4.7 µM.

For `O=C(Nc1ccc(OC(F)(F)Cl)cc1)c1cnc(N2CC[C@@H](O)C2)c(-c2ccn[nH]2)c1` [Ref. ex. 1, N-[4-[Chloro(difluoro)methoxy]phenyl]-6-[(3R)-3-hydroxypyrrolidin-1-yl]-5-(1H-pyrazol-5-yl)pyridine-3-carboxamide, reference compound], in data set [1], the clearance was 22 mL/min/kg, the half-life is 2.1 h and the bioavailability was 4%.

As to `Cc1c(-n2cc(C(=O)Nc3ccc(OC(F)(F)Cl)cc3)ccc2=O)cnn1C` [Example 18, N-[4-[Chloro(difluoro)methoxy]phenyl]-1-(1,5-dimethylpyrazol-4-yl)-6-oxo-pyridine-3-carboxamide], the solubility at 30 min in data set [3] is 200 µM (≈ 81.8 µg/mL). In data set [2], the 50% inhibitory concentration (IC50) was greater than 10 µM.

The compound `Cn1ccc(-n2cc(C(=O)Nc3ccc(OC(F)(F)Cl)cc3)ccc2=O)n1` [Example 3, N-[4-(Chlorodifluoromethoxy)phenyl]-1-(1-methyl-1H-pyrazol-3-yl)-6-oxo-1,6-dihydropyridine-3-carboxamide] returned a solubility at 30 min in data set [3] of 140 µM (≈ 55.3 µg/mL).
